Reference: patent US20230241038A1, “METHOD OF TREATING RNA REPEAT MEDIATED DISEASES WITH RNA REPEAT BINDING COMPOUND” (AMO Pharma Ltd., priority 2021, published 2023)
“Also recorded” adds a separate entry of the source. Where two headings read alike, the source gives them in different places. Values belong to the compound of their own block, whether it stands above or below them.

Key:
[1] = test system: RNA construct containing CUG repeats (RNA hairpin 1; SEQ ID NO:1); experiment: MicroScale Thermophoresis (MST) fluorescence binding assay, RNA hairpin 1; settings: RNA hairpin 1 (CUG repeats)
Method: [The procedure below names another target; the source lists this target under the same test.] This direct binding was determined using a MicroScale Thermophoresis (MST) Fluorescence binding assays with Tideglusib and an RNA hairpin containing CUG repeats. […] MBNL1 has a well characterized role in myotonic dystrophy where impaired RNA splicing disrupts muscle development and function.
The method used for the MST fluorescence assay was as follows. A serial dilution of the ligand (Tideglusib) was prepared in a way to match the final buffer conditions in the reaction mix (assay buffer 20 mM HEPES pH 7.4, 0.05% Tween-20). The highest concentration of ligand was 500 μM and the lowest 15.3 nM. 5 μl of each dilution step were mixed with 5 μl of the fluorescent molecule. The final reaction mixture, which was filled in capillaries, contained a respective amount of ligand (max. conc. 250 μM, min. conc. 7.63 nM) and constant 50 nM fluorescent molecule. The samples were analyzed on a Monolith NT. 115 at 25° C., with 40% LED power and 40% Laser power. The fluorescence labeled RNA construct (RNA hairpin 2; produced by Metabion) had the following sequence: […]

[2] = test system: ERK (pERK); experiment: Phosphorylated ERK in lymphocytes from pediatric subjects with Autism Spectrum Disorder; type: in vivo, human; settings: 12 weeks, titrated 400 mg to 1000 mg oral once per day, versus placebo
[3] = test system: patients having DM1; experiment: Clinical Global Impression of Improvement in patients having DM1; type: in vivo, human; settings: patients having DM1, 400 mg or 1000 mg
[4] = test system: GSK3β; experiment: GSK3β kinase protein levels in lymphocytes from treated Congenital Onset DM1 patients; type: in vivo, human; settings: 400 mg or 1000 mg po per day, six and twelve weeks of treatment
Method: (§1) Lymphocyte cell pellets were lysed in 150 μl of cold NP40 Cell Lysis Buffer with protease inhibitors. Total protein of each extract was measured with DC Protein assay Kit according to the manufacturer specifications. For the analysis of GSK3β and related kinases, the commercially available kits AKT Pathway Total Multispecies 7-Plex Panel and the equivalent for the phosphorylated forms for Luminex® Platform from Thermo Fisher Scientific were used. These were the AKT Pathway (Total) 7-Plex Multispecies Panel (#LHO0002M ThermoFisher Scientific) that assays the following signaling proteins: GSK3β, Total IR, IGF-1R, IRS-1, Akt, PRAS40 and p70s6K. The AKT Pathway (Phospho) 7-Plex Multispecies Panel (#LHO0001M ThermoFisher Scientific) assays the following signaling proteins: GSK3β[pS9], IR[pYpY1162/1163], IGF-1R[pYpY1135/1136], IRS-1[pS312], Akt[pS473], PRAS40[pT246] and p70s6K[pTpS421/424].

[5] = test system: RNA construct containing CAG repeats (RNA hairpin 2; SEQ ID NO:2); experiment: MicroScale Thermophoresis (MST) fluorescence binding assay, RNA hairpin 2; settings: RNA hairpin 2 (CAG repeats)
Method: The method used for the MST fluorescence assay was as follows. A serial dilution of the ligand (Tideglusib) was prepared in a way to match the final buffer conditions in the reaction mix (assay buffer 20 mM HEPES pH 7.4, 0.05% Tween-20). The highest concentration of ligand was 500 μM and the lowest 15.3 nM. 5 μl of each dilution step were mixed with 5 μl of the fluorescent molecule. The final reaction mixture, which was filled in capillaries, contained a respective amount of ligand (max. conc. 250 μM, min. conc. 7.63 nM) and constant 50 nM fluorescent molecule. The samples were analyzed on a Monolith NT. 115 at 25° C., with 40% LED power and 40% Laser power. The fluorescence labeled RNA construct (RNA hairpin 2; produced by Metabion) had the following sequence:
Binding to other RNA trinucleotide repeats was investigated by repeating the experimental protocol above with an RNA repeat construct containing CAG repeats (RNA hairpin 2).

[6] = test system: JNK (pJNK); experiment: Phosphorylated JNK in lymphocytes from pediatric subjects with Autism Spectrum Disorder; type: in vivo, human; settings: 12 weeks, titrated 400 mg to 1000 mg oral once per day, versus placebo
[7] = target: RNA construct containing CUG repeats with interspersed interrupting non CUG repeats (RNA hairpin 3; SEQ ID NO:3); experiment: MicroScale Thermophoresis (MST) fluorescence binding assay, RNA hairpin 3
[8] = test system: phosphorylated Akt (pAkt); experiment: Phosphorylated Akt (pAkt) levels in lymphocytes from treated Congenital Onset DM1 patients; type: in vivo, human; settings: 400 mg or 1000 mg per day, six and twelve weeks of treatment
Method: as §1, with “In order to determine whether the clinical benefit produced by administration of Tideglusib could be related to inhibition of GSK3β, the activity of this kinase in circulating tissues in treated patients was determined. Lymphocyte” for “Lymphocyte”, “IRS-1[[…]],” for “IRS-1[pS312],”, “PRAS40[[…]]” for “PRAS40[pT246]”, “[…]421/424].” for “p70s6K[pTpS421/424].”

[9] = test system: phosphorylated Akt (pAkt); experiment: Phosphorylated Akt in lymphocytes from pediatric subjects with Autism Spectrum Disorder; type: in vivo, human; settings: 12 weeks, titrated 400 mg to 1000 mg oral once per day, versus placebo, p<0.0001
Method: as §1, with “In order to determine whether the clinical benefit produced by administration of Tideglusib could be related to inhibition of GSK3β, the activity of this kinase in circulating tissues in treated patients was determined. Lymphocyte” for “Lymphocyte”, “IRS-1[[…]],” for “IRS-1[pS312],”, “PRAS40[[…]]” for “PRAS40[pT246]”, “[…]421/424].” for “p70s6K[pTpS421/424].”

- binding to CUG repeat RNA (in words) ([1]; MST): no binding activity
- binding to CUG repeat RNA (in words) ([1]; MST, listed as main metabolite of Tideglusib): No reliable binding
Structure (SMILES): O=C(NCc1ccccc1)Nc1cccc2ccccc12 [urea derivative of Tideglusib, 1-benzyl-3-naphthalen-1-yl-urea]

- Kd ([1]; MST, 25° C., read-out: KD of binding): 0.0197 µM
- effect on GSK3β levels in lymphocytes [4]: Neither dose shows any effect
- binding to CAG repeat RNA (in words) [5]: No reliable of binding
- Kd ([7]; RNA hairpin 3, CUG repeats with interrupting non CUG repeats, read-out: KD of binding): 3.2 µM
- Kd ([7]; RNA hairpin 3, interspersed non CUG repeats (CCG and CUC), read-out: potency of binding): 3.2 µM
- fold less potent binding versus RNA hairpin 1 ([7]; RNA hairpin 3 versus RNA hairpin 1): 162 fold
Structure (SMILES): O=c1sn(-c2cccc3ccccc23)c(=O)n1Cc1ccccc1 [Tideglusib, 4-Benzyl-2-naphthalen-1-yl-[1,2,4]thiadiazolidine-3,5-dione]
- inhibition of phosphorylation of ERK in lymphocytes [2]: did not inhibit phosphorylation
- clinical benefit, Clinical Global Impression of Improvement measurement scale [3]: majority of patients having DM1 treated with Tideglusib showed clinical benefit
- effect on GSK3β levels in lymphocytes ([4]; listed as Compound 1): no effect
- inhibition of phosphorylation of JNK in lymphocytes [6]: did not inhibit phosphorylation
- effect on phosphorylated Akt (pAkt) levels in lymphocytes [8]: not achieved; also recorded: unable overcome the phosphorylation of Akt
- effect on phosphorylated Akt (pAkt) levels in lymphocytes ([8]; listed as Compound 1): no effect
- inhibition of phosphorylation of Akt in lymphocytes [9]: reduces levels of phosphorylation of Akt; also recorded: inhibited phosphorylation of Akt

- Kd ([1]; data not shown, read-out: KD): 31.4 µM
Structure (SMILES): CCn1c(=O)sn(Cc2ccccc2)c1=O [Compound 2, 2-Benzyl-4-ethyl-[1,2,4]thiadiazolidine-3,5-dione]
